Non-standard residues stand in square brackets, D forms with d. No end group written: not given here. pY = N[C@@H](Cc1ccc(OP(=O)(O)O)cc1)C(=O)O
Assays:
Ink4a/Arf-/- astrocytes = assay: Drug sensitivity assay, cell viability by WST-1; format: cell-based, mouse; conditions: 72 hours
From the text: Mouse Astrocytes. Ink4a/Arf^−/−1 and Pten^loxP/loxP 2 mice were obtained from the NCI mouse depository and intercrossed to generate described genotypes. Primary astrocytes were isolated from the neocortex of 4 day old pups, using standard astrocyte isolation culture conditions (Bachoo et al 2002). Conditional deletion of Pten^loxP/loxP was accomplished by infecting astrocyte cultures with adenovirus expressing Cre recombinase under the CMV promoter (Gene TransferVector Core, University of Iowa, Iowa City, Iowa). Effective Pten deletion was verified by western blot. EGFRvIII was expressed in these cells by retroviral infection as described previously (Bachoo et al 2002). (Reference: Bachoo, R. M. et al. Epidermal growth factor receptor and Ink4a/Arf: convergent mechanisms governing terminal differentiation and transformation along the neural stem cell to astrocyte axis. Cancer Cell 1, 269-77 (2002)).
Drug sensitivity assays. Cells were plated at 1000 cells/well in 96 well plates and allowed to adhere for four hours prior to addition of Erlotinib and/or Dasatinib or solvent (DMSO) control. Cells were maintained in 5% serum during drug treatments and cell viability was measured using WST-1 assay (Clontech) following 72 hours exposure to drug.
Statistical analysis. For quantitation and analysis of immunohistochemistry data, see above. For analysis of drug sensitivity data, 2-way ANOVA was performed using the KaleidaGraph program (Synergy Software).

Lyn = Lyn (Homo sapiens, UniProt P07948); conditions: cited from earlier work
[1] = in vivo; cited from earlier work
[2] = tested on: Ph+ leukemia cells which express wt and mutated BCR-ABL; conditions: mouse, in vivo; cited from earlier work
anti-pY240 PTEN antibody = assay: Peptide competition of anti-pY240 immunostaining; format: binding; conditions: tissue sections from human GBM with wild type PTEN
From the text: Immunohistochemistry: Tissue sections were cut from blocks of formalin-fixed paraffin tumor tissue from glioblastoma patients treated at UCLA with the EGFR kinase inhibitors (erlotinib or gefitinib), including a subset of patients previously described^2. Tumor specimens were obtained according to a protocol approved by the institutional review board of UCLA. Pre-treatment tumor tissue was examined for 19 patients; post-treatment tissue was examined from 8 patients, including 7 patients for whom pre- and post-treatment tissue was available. […]

GBM39 cells = assay: PTEN Y240 phosphorylation in GBM39 glioma cells, western blot; format: cell-based, human; conditions: pervanadate 100 μM for 15 minutes
Description: Mice were sacrificed by CO2 inhalation followed by cervical dislocation, according to institutional guidelines. Subcutaneous tumors were removed and tumor tissue was minced into 0.1-0.5 mm^3 chunks in a 60 mm dish with 5 ml of freshly prepared, filter-sterilized digestion solution (12,500 units of Collagenase Type 2, 12,500 units of Collagenase Type 4, 20 mL DMEM (Serum Free), 20 uL of 1 mg/mL DNAase I). Tissue was placed into a sterile 15 ml specimen cup with an additional 10 ml of digestion solution and shaken (150 rpm) at 37 C for 3 hours before filtration through a 70/40 um filter. After centrifugation at 1000 rpm for 3 minutes, the supernatant was discarded. The pellet was resuspended in 1 ml of ACK buffer (150 mM NH4Cl, 10 mM KHCO3, 0.1 mM Na2EDTA, adjusted to pH 7.2-7.4 with 1N HCl) and incubated at room temperature for 3 minutes to lyse red blood cells. Cells were pelleted by centrifugation at 1000 rpm for 3 minutes and resuspended in culture medium (DMEM containing 10% fetal bovine serum plus L-glutamine and penicillin/streptomycin). Cell viability was determined by trypan blue exclusion and cells were plated at a density of approx 10^6 cells per 100 mm culture dish. Cells were maintained under standard cell culture conditions (37 C, 5% CO2 in a humidified incubator) and all experiments were conducted in cells prior to p4. […]

Lyn, sequence (P07948 whole entry, species assumed): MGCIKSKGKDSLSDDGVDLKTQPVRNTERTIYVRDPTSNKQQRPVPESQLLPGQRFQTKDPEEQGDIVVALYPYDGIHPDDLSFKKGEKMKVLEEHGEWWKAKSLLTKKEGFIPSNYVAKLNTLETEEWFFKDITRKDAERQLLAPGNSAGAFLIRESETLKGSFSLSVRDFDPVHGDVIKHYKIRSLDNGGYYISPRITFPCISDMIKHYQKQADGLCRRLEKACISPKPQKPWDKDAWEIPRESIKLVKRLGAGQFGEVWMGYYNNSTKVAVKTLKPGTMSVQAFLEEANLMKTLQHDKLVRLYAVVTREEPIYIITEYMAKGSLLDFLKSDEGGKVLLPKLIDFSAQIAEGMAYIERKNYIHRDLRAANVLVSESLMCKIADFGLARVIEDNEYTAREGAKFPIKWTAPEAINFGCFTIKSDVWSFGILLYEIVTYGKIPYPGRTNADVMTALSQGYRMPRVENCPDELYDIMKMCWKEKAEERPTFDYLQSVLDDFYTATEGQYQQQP

C#Cc1cccc(Nc2ncnc3cc(OCCOC)c(OCCOC)cc23)c1 [Erlotinib]
sensitivity to Erlotinib (cell viability) (Ink4a/Arf-/- astrocytes; EGFRvIII PTEN-null astrocytes reconstituted with PTEN Y240F mutant): significantly sensitized these cells to sub-micromolar doses
sensitivity to Erlotinib (cell viability) (Ink4a/Arf-/- astrocytes; EGFRvIII astrocytes reconstituted with WT PTEN): resistant to clinically achievable doses
sensitivity to Erlotinib (cell viability) (Ink4a/Arf-/- astrocytes; PTEN-null astrocytes expressing EGFRvIII): resistant to clinically achievable doses
sensitivity to Erlotinib (cell viability) (Ink4a/Arf-/- astrocytes; astrocytes expressing WT PTEN, with versus without EGFRvIII): sensitizes astrocytes expressing WT PTEN to Erlotinib

Cc1ccc(NC(=O)c2ccc(CN3CC[C@H](N(C)C)C3)c(C(F)(F)F)c2)cc1Nc1nccc(-c2cncnc2)n1 [INNO-406]
Lyn inhibition versus phosphorylation of Src, Blk or Yes (Lyn): inhibits Lyn without affecting the phosphorylation of Src-family kinases Src, Blk or Yes
concentrations in the CNS relative to those in plasma [1]: about 10%
growth of Ph+ leukemia cells in murine CNS [2]: does inhibit growth

FMY[243.03]FEFPQPLPVC[160.03]GDIK: Phosphorylated PTEN Y240 peptide that competes away antibody staining (FM[pY]FEFPQPLPVCGDIK; not fully specified (residue 13); printed as FMY[243.03]FEFPQPLPVC[160.03]GDIK; also: modified cysteine C13 (C[160.03]))
competition of antibody staining in immunostaining (anti-pY240 PTEN antibody): competes away antibody staining

pervanadate
induction of Y240 phosphorylation (GBM39 cells): substantial increase in Y240 phosphorylation
